According to patent US11668709B2, “System for monitoring post-translational modification of protein using bio-sensor with gap and manufacturing method for bio-sensor” (KOREA INSTITUTE OF SCIENCE AND TECHNOLOGY, priority 2018, dated 2023):

Legend:
Type in all cases: biochemical
O-GlcNAcase [1] = assay: Verification Experiment 4: impedance with and without O-GlcNAcase inhibitor, third antibody (O-g Antibody); settings: 100 μM thiamet G treated compared to untreated; tau protein 0.5-524 fg/ml; O-glycosylation site antibody
Method: (§1) Tau protein at a concentration of 5250 ng/mL was diluted 1/10 at various concentrations (0.5 fg/mL to 50 pg/mL) with 0.1% PBST and treated with Thiamet G treatment inhibiting O-GlcNAcase or BZX2 promoting O-GlcNAcase as needed.
(§2) The impedance Z was measured with and without the substance that inhibits O-GlcNAcase, using the system for monitoring post-translational modification of protein according to the embodiment of the present disclosure.

O-GlcNAcase [2] = assay: Verification Experiment 6: impedance of tau protein with second or third antibody, with and without thiamet G; settings: 5 pg/ml tau protein
Method: as §1, §2
(a) 5 pg/ml of tau protein, (b) 5 pg/ml of tau protein+second antibody (AT-8 antibody), and (c) 5 pg/ml of tau protein+third antibody (O-g Antibody) were introduced into the sensor 100, respectively, and then impedance Z was measured for PBS, Neg, Thiamet G untreated, and 100 μM of thiamet G treated samples, respectively.

O-GlcNAcase [3] = assay: Verification Experiment 5: impedance with O-GlcNAcase inhibitor or promoter, second antibody (AT-8 antibody); settings: 100 μM BZX2 treated; tau protein 0.5-500 fg/ml; AT-8 phosphorylation site antibody
Method: as §1
The impedance Z was measured for when treated with a substance that inhibits O-GlcNAcase; and when treated with a substance that promotes O-GlcNAcase of O-glycosylated tau protein, using the system for monitoring post-translational modification of protein according to the embodiment of the present disclosure.
A sample containing the second conjugate S2 (microbead+first antibody+tau protein) and an antibody (second antibody, AT-8 antibody) that can bind to the phosphorylation site of tau protein was introduced into the sensor 100, and impedance Z was measured for each of the following: (a) treated with 100 μM of thiamet G which is a substance that inhibits O-GlcNAcase; and (b) treated with 100 μM of BZX2 which is substance that promotes O-GloNAcase, for respective concentrations (0.5 fg/ml, 5 fg/ml, 50 fg/ml, and 500 fg/ml) of tau protein.
The impedance Z was measured from each sample when the first sample containing the second conjugate S2 was introduced into the sensor 100 and when the second sample containing the third conjugate S3 was introduced into the sensor 100.

Compound	difference in impedance (Z1−Z3) (O-GlcNAcase [1])	impedance Z2 measured as the second antibody (AT-8 antibody) was added (O-GlcNAcase [2]; 100 μM thiamet G treated (untreated 33.65 MΩ)) [MΩ]	impedance Z3 measured as the third antibody (O-g antibody) was added (O-GlcNAcase [2]; 100 μM thiamet G treated (untreated 38.27 MΩ)) [MΩ]	impedance difference (Z1−Z2) (O-GlcNAcase [3])
CCN=C1N[C@@H]2[C@@H](O)[C@H](O)[C@@H](CO)O[C@@H]2S1 [thiamet G]	greater	37.65	35.0	–
BZX2	–	–	–	increases as the concentration of tau protein increases
